Our source for the EC50 and CC50 values is US11312727B1, “Macrocyclic flu endonuclease inhibitors” (Janssen BioPharma, Inc., priority 2018, dated 2022).

Series [1] deals with Influenza strain A549 A/WSN/33 (H1N1). The series can be described thus: microbe, parasite or virus in culture. The series is classed as cell-based. Conditions: Influenza A virus, A549, 20 h, A549 cells, influenza A/WSN/33 (H1N1), 20 hours incubation; read-out: A549_A(H1N1) EC50.
The nature of series [2]: in vitro. Conditions: human, CC50, uninfected A549 cells, CellTiter-Glo.

The term EC50 denotes the concentration that produces a half-maximal response. For orientation: CC50 means the concentration at which the toxic effect on the cells reaches its halfway point. Higher therefore signals lower toxicity to the cells. Turning to `O=C1c2c(O)c(=O)ccn2N2CN1C/C=C\CCOc1ccccc1C2c1ccccc1` (stereo not drawn) [Compound 19, (*Z)-15-hydroxy-2-phenyl-12,13,14,16-tetrahydro-11H-4-oxa-1(1,3)-pyrido[2,1-f][1,2,4]triazina-3(1,2)-benzenacyclononaphan-7-ene-14,16-dione], in series [1], the EC50 is 260 nM. Moreover, in series [2], the CC50 is more than 2000 nM.
The like results for `O=C1c2c(O)c(=O)ccn2N2CN1CCC/C=C\c1cccc3c1[C@H]2c1ccccc1CC3` [Compound 31B, (19bR,Z)-4-hydroxy-8,9,15,19b-tetrahydro-7H,14H-13,12-(epiprop[1]en[1]yl[3]ylidene)-6,20-methanobenzo[3,4]cyclohepta[1,2-1]pyrido[1,2-b][1,2,5]triazacyclotridecine-3,5-dione] were, in that order, 4 nM and more than 2000 nM.
The corresponding values for `CC[C@@H]1/C=C/COc2ccccc2[C@H](c2ccccc2)N2CN1C(=O)c1c(O)c(=O)ccn12` [Compound 39AA, (9R,18S,E)-9-ethyl-12-hydroxy-18-phenyl-6,9-dihydro-18H-10,17-methanobenzo[b]pyrido[1,2-f][1]oxa[5,6,9]triazacyclotridecine-11,13-dione] are more than 1000 nM and more than 2000 nM.
The like results for `CC[C@H]1/C=C/COc2ccccc2[C@H](c2ccccc2)N2CN1C(=O)c1c(O)c(=O)ccn12` [Compound 39AB, (9S,18S,E)-9-ethyl-12-hydroxy-18-phenyl-6,9-dihydro-18H-10,17-methanobenzo[b]pyrido[1,2-f][1]oxa[5,6,9]triazacyclotridecine-11,13-dione] were, in that order, more than 1000 nM and more than 2000 nM.
Turning to `CC[C@@H]1/C=C/COc2ccccc2[C@@H](c2ccccc2)N2CN1C(=O)c1c(O)c(=O)ccn12` [Compound 39BA, (9R,18R,E)-9-ethyl-12-hydroxy-18-phenyl-6,9-dihydro-18H-10,17-methanobenzo[b]pyrido[1,2-f][1]oxa[5,6,9]triazacyclotridecine-11,13-dione], the EC50 in series [1] came to 6 nM. In series [2], this compound displayed a CC50 of more than 200 nM.
Regarding `CC[C@H]1/C=C/COc2ccccc2[C@@H](c2ccccc2)N2CN1C(=O)c1c(O)c(=O)ccn12` [Compound 39BB, (9S,18R,E)-9-ethyl-12-hydroxy-18-phenyl-6,9-dihydro-18H-10,17-methanobenzo[b]pyrido[1,2-f][1]oxa[5,6,9]triazacyclotridecine-11,13-dione], the EC50 in series [1] was 7 nM. Also, the CC50 in series [2] is more than 2000 nM.
The corresponding values for `O=C1c2c(O)c(=O)ccn2N2CN1C/C=C/CCc1ccccc1[C@H]2c1ccccn1` [Compound 43A, (17S,E)-4-hydroxy-16-(pyridin-2-yl)-7,10,11,16-tetrahydro-6,17-methanobenzo[k]pyrido[1,2-b][1,2,5]triazacyclotridecine-3,5-dione] are 22 nM and more than 2000 nM.
The corresponding values for `O=C1c2c(O)c(=O)ccn2N2CN1C/C=C/CCc1ccccc1[C@@H]2c1ccccn1` [Compound 43B, (17R,E)-4-hydroxy-16-(pyridin-2-yl)-7,10,11,16-tetrahydro-6,17-methanobenzo[k]pyrido[1,2-b][1,2,5]triazacyclotridecine-3,5-dione] are more than 1000 nM and more than 2000 nM.
In the case of `O=C1c2c(O)c(=O)ccn2N2CN1C/C=C\COc1cccc3c1[C@@H]2c1ccccc1SC3` [Compound 46A, (21R,Z)-16-hydroxy-6,10,13,21a-tetrahydro-7,8-(epiprop[1]en[1]yl[3]ylidene)-14,21-methanobenzo[6,7]thiepino[4,5-c]pyrido[1,2-f][1]oxa[5,6,9]triazacyclotridecine-15,17-dione], the EC50 in series [1] was 64 nM. In series [2], this compound displayed a CC50 of more than 2000 nM.
The like results for `O=C1c2c(O)c(=O)ccn2N2CN1C/C=C\COc1cccc3c1[C@H]2c1ccccc1SC3` [Compound 46B, (21S,Z)-16-hydroxy-6,10,13,21a-tetrahydro-7,8-(epiprop[1]en[1]yl[3]ylidene)-14,21-methanobenzo[6,7]thiepino[4,5-c]pyrido[1,2-f][1]oxa[5,6,9]triazacyclotridecine-15,17-dione] were, in that order, 3 nM and more than 100 nM.
The corresponding values for `O=C1c2c(O)c(=O)ccn2N2CN1C/C=C/COc1cccc3c1[C@@H]2c1ccccc1SC3` [Compound 46C, (17R,E)-12-hydroxy-2,6,9,17a-tetrahydro-3,4-(epiprop[1]en[1]yl[3]ylidene)-10,17-methanobenzo[6,7]thiepino[4,5-c]pyrido[1,2-f][1]oxa[5,6,9]triazacyclotridecine-11,13-dione] are 330 nM and more than 2000 nM.
The corresponding values for `O=C1c2c(O)c(=O)ccn2N2CN1C/C=C/COc1cccc3c1[C@H]2c1ccccc1SC3` [Compound 46D, (17S,E)-12-hydroxy-2,6,9,17a-tetrahydro-3,4-(epiprop[1]en[1]yl[3]ylidene)-10,17-methanobenzo[6,7]thiepino[4,5-c]pyrido[1,2-f][1]oxa[5,6,9]triazacyclotridecine-11,13-dione] are 1 nM and more than 200 nM.
`O=C1c2c(O)c(=O)ccn2N2CN1CCCCCOc1cccc3c1C2c1ccccc1SC3` (stereo not drawn) [Compound 48]: the EC50 in series [1] is 32 nM. Besides, the CC50 in series [2] was more than 2000 nM.
The like results for `CN1Cc2ccccc2C(c2ccccc2)N2CN(CCC1=O)C(=O)c1c(O)c(=O)ccn12` (stereo not drawn) [Compound 50, 12-hydroxy-6-methyl-18-phenyl-5,8,9,18-tetrahydro-10,17-methanobenzo[k]pyrido[1,2-b][1,2,5,9]tetraazacyclotridecine-7,11,13(6H)-trione] were, in that order, more than 1000 nM and more than 2000 nM.
The corresponding values for `O=C1c2c(O)c(=O)ccn2N2CN1CC/C=C\c1ccccc1C2c1ccccc1` (stereo not drawn) [Compound 54, (*Z)-4-hydroxy-15-phenyl-8,15-dihydro-7H-6,16-methanobenzo[j]pyrido[1,2-b][1,2,5]triazacyclododecine-3,5-dione] are 117 nM and more than 20000 nM.
The like results for `O=C1c2c(O)c(=O)ccn2N2CN1CCCCCCOc1ccccc1C2c1ccccc1` (stereo not drawn) [Compound 55, 15-hydroxy-2-phenyl-12,13,14,16-tetrahydro-11H-4-oxa-1(1,3)-pyrido[2,1-f][1,2,4]triazina-3(1,2)-benzenacyclodecaphane-14,16-dione] were, in that order, 880 nM and more than 2000 nM.
`O=C1c2c(O)c(=O)ccn2N2CN1C/C=C\CCCOc1ccccc1C2c1ccccc1` (stereo not drawn) [Compound 60, (*Z)-15-hydroxy-2-phenyl-12,13,14,16-tetrahydro-11H-4-oxa-1(1,3)-pyrido[2,1-f][1,2,4]triazina-3(1,2)-benzenacyclodecaphan-8-ene-14,16-dione]: in series [1], the EC50 was more than 1000 nM. The compound further yielded a CC50 in series [2] of more than 2000 nM.
The corresponding values for `O=C1c2c(O)c(=O)ccn2N2CN1CC/C=C\c1cccc3c1C2c1ccccc1CC3` (stereo not drawn) [Compound 73, (11*Z)-6-hydroxy-10,16,17,21b-tetrahydro-9H-1,8-methanobenzo[4,5]cyclohepta[1,2,3-op]pyrido[1,2-c][2,3,6]benzotriazacyclododecine-5,7-dione] are 16 nM and more than 2000 nM.
The like results for `O=C1c2c(O)c(=O)ccn2N2CN1C1(/C=C/COc3ccccc3[C@@H]2c2ccccc2)CC1` [Compound 79A, (18'S,E)-12′-hydroxy-18′-phenyl-6′H,18′H-spiro[cyclopropane-1,9′-[10,17]methanobenzo[b]pyrido[1,2-f][1]oxa[5,6,9]triazacyclotridecine]-11′,13′-dione] were, in that order, more than 500 nM and more than 1000 nM.
The like results for `O=C1c2c(O)c(=O)ccn2N2CN1C1(/C=C/COc3ccccc3[C@H]2c2ccccc2)CC1` [Compound 79B, (18′R,E)-12′-hydroxy-18′-phenyl-6′H,18′H-spiro[cyclopropane-1,9′-[10,17]methanobenzo[b]pyrido[1,2-f][1]oxa[5,6,9]triazacyclotridecine]-11′,13′-dione] were, in that order, 6 nM and more than 1000 nM.
As to `O=C1c2c(O)c(=O)ccn2N2CN1C/C=C/COc1cccc3c1[C@H]2c1ccccc1S(=O)(=O)C3` [Compound 82, (17aS,E)-12-hydroxy-2,6,9,17a-tetrahydro-3,4-(epiprop[1]en[1]yl[3]ylidene)-10,17-methanobenzo[6,7]thiepino[4,5-c]pyrido[1,2-f][1]oxa[5,6,9]triazacyclotridecine-11,13-dione 1,1-dioxide], the EC50 in series [1] was found to be 71 nM. In series [2], this compound had a CC50 of more than 1000 nM.
The like results for `O=C1c2c(O)c(=O)ccn2N2CN1C[C@H]1C[C@@H]1COc1cccc3c1[C@H]2c1ccccc1SC3` [Compound 87BA, (1aS,11bS,20aS)-17-hydroxy-1a,2,6,11b,20,20a-hexahydro-1H-5,4-(epiprop[1]en[1]yl[3]ylidene)-12,19-methanobenzo[6,7]thiepino[4,5-c]cyclopropa[k]pyrido[1,2-f][1]oxa[5,6,9]triazacyclotridecine-16,18-dione] were, in that order, 4 nM and more than 200 nM.
Take `O=C1c2c(O)c(=O)ccn2N2CN1C[C@@H]1C[C@H]1COc1cccc3c1[C@H]2c1ccccc1SC3` [Compound 87BB, (1aR,11bS,20aR)-17-hydroxy-1a,2,6,11b,20,20a-hexahydro-1H-5,4-(epiprop[1]en[1]yl[3]ylidene)-12,19-methanobenzo[6,7]thiepino[4,5-c]cyclopropa[k]pyrido[1,2-f][1]oxa[5,6,9]triazacyclotridecine-16,18-dione]: the half-maximal effective concentration (EC50) in series [1] was 4 nM. Also, the CC50 in series [2] is more than 200 nM.
The like results for `CC[C@H]1/C=C\COc2cccc3c2[C@H](c2ccccc2SC3)N2CN1C(=O)c1c(O)c(=O)ccn12` [Compound 92AA, (13S,21aR,Z)-13-ethyl-16-hydroxy-6,10,13,21a-tetrahydro-7,8-(epiprop[1]en[1]yl[3]ylidene)-14,21-methanobenzo[6,7]thiepino[4,5-c]pyrido[1,2-f][1]oxa[5,6,9]triazacyclotridecine-15,17-dione] were, in that order, 108 nM and more than 1000 nM.
